Data published in publication PMC10280043 (RSC Advances, 2023).

What was measured:
hCAIX = hCAIX (Homo sapiens, UniProt Q16790); assay: biochemical
hCAXII = hCAXII (Homo sapiens, UniProt O43570); assay: Carbonic anhydrase inhibition assay, hCAXII; assay type: biochemical
hCAII = hCAII (Homo sapiens, UniProt P00918); assay: Carbonic anhydrase inhibition assay, hCAII; assay type: biochemical

hCAXII, sequence (O43570 25-354): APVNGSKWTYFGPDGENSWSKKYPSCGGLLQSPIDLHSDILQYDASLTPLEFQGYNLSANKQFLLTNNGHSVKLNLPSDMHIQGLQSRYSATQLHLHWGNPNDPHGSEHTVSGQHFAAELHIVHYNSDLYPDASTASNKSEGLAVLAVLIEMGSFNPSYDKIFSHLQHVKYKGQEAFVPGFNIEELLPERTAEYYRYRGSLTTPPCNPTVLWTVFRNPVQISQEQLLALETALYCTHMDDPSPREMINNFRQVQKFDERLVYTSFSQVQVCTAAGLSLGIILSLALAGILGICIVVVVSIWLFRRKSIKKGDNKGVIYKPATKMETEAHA

NS(=O)(=O)c1ccc(N2N=C(c3ccccc3O)CC2c2ccc(Cl)cc2)cc1 (stereo not drawn) [4c, 4-(5-(4-Chlorophenyl)-3-(2-hydroxyphenyl)-4,5-dihydro-1H-pyrazol-1-yl)benzene sulfonamide]
IC50 (hCAIX): 7080 ± 400 nM | IC50 (hCAXII): 2870 ± 20 nM | IC50 (hCAII): 1200 ± 400 nM

Cc1ccc(C2CC(c3cc(Br)ccc3O)=NN2c2ccc(S(N)(=O)=O)cc2)cc1 (stereo not drawn) [4f, 4-(3-(5-Bromo-2-hydroxyphenyl)-5-(p-tolyl)-4,5-dihydro-1H-pyrazol-1-yl)benzene sulfonamide]
IC50 (hCAIX): 240 ± 80 nM | IC50 (hCAXII): 6970 ± 140 nM

COc1cccc(C2CC(c3cc(Br)ccc3O)=NN2c2ccc(S(N)(=O)=O)cc2)c1 (stereo not drawn) [4g, 4-(3-(5-Bromo-2-hydroxyphenyl)-5-(3-methoxyphenyl)-4,5-dihydro-1H-pyrazol-1-yl)benzene sulfonamide]
IC50 (hCAIX): 5280 ± 690 nM | IC50 (hCAXII): 120 ± 70 nM | IC50 (hCAII): 8260 ± 990 nM

NS(=O)(=O)c1ccc(N2N=C(c3cc(Br)ccc3O)CC2c2ccc(Br)cc2)cc1 (stereo not drawn) [4h, 4-(3-(5-Bromo-2-hydroxyphenyl)-5-(4-bromophenyl)-4,5-dihydro-1H-pyrazol-1-yl)benzene sulfonamide]
IC50 (hCAIX): 260 ± 40 nM | IC50 (hCAXII): 380 ± 100 nM | IC50 (hCAII): 17200 ± 1770 nM

COc1cccc(C2CC(c3cc(Cl)cc(Cl)c3O)=NN2c2ccc(S(N)(=O)=O)cc2)c1 (stereo not drawn) [4i, 4-(3-(3,5-Dichloro-2-hydroxyphenyl)-5-(3-methoxyphenyl)-4,5-dihydro-1H-pyrazol-1-yl)benzene sulfonamide]
IC50 (hCAIX): 4510 ± 220 nM | IC50 (hCAXII): 1600 ± 10 nM | IC50 (hCAII): 8150 ± 190 nM

Cc1ccc(C2CC(c3ccc(F)cc3O)=NN2c2ccc(S(N)(=O)=O)cc2)cc1 (stereo not drawn) [4j, 4-(3-(4-Fluoro-2-hydroxyphenyl)-5-(p-tolyl)-4,5-dihydro-1H-pyrazol-1-yl)benzene sulfonamide]
IC50 (hCAIX): 150 ± 70 nM | IC50 (hCAXII): 280 ± 50 nM | IC50 (hCAII): 390 ± 50 nM

COc1ccccc1C1CC(c2ccc(F)cc2O)=NN1c1ccc(S(N)(=O)=O)cc1 (stereo not drawn) [4k, 4-(3-(4-Fluoro-2-hydroxyphenyl)-5-(2-methoxyphenyl)-4,5-dihydro-1H-pyrazol-1-yl)benzene sulfonamide]
IC50 (hCAXII): 1000 ± 90 nM
